{"source": "BindingDB's records for patent US9334290", "about": "(Bristol Myers Squibb, 2016)", "target": "Tyrosine-protein kinase JAK2 (Homo sapiens, UniProt O60674)", "sequence (O60674 whole entry)": "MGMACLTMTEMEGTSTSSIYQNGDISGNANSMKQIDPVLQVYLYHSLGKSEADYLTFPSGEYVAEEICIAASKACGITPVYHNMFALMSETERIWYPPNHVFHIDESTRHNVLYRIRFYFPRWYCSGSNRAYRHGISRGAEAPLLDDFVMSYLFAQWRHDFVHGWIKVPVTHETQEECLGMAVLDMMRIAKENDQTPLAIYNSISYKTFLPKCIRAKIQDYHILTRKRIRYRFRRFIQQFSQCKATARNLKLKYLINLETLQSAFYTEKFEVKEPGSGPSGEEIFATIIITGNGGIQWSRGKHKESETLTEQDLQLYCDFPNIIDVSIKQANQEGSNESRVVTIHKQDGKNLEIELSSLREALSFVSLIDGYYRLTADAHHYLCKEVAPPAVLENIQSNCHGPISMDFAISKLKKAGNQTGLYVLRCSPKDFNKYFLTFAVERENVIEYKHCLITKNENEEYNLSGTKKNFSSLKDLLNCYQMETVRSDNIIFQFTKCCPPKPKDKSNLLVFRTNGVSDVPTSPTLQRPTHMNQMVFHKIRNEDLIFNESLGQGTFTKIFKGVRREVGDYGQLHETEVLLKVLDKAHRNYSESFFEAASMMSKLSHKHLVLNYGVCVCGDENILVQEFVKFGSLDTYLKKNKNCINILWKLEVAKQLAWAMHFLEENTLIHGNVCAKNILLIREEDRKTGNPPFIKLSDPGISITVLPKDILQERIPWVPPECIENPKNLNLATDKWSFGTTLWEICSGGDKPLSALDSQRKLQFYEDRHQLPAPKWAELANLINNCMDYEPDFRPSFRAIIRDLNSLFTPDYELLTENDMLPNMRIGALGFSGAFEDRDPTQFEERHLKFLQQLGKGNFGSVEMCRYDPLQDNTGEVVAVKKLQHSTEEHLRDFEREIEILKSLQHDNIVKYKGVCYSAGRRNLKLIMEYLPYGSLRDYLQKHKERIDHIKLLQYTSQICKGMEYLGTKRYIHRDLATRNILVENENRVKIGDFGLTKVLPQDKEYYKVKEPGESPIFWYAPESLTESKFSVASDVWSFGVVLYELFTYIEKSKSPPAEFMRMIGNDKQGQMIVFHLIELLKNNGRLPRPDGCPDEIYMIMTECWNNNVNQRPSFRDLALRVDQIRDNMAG", "assay": "Jak2 Tyrosine Kinase Assay", "conditions": "pH 7.4; 25 °C", "note": "pIC50: −log10 of the molar value."}
{"smiles": "Cc1c(-c2c(F)cc(C(N)=O)c3[nH]c4cc(C(C)(C)O)ccc4c23)cccc1-n1c(=O)[nH]c2c(F)cccc2c1=O", "note": "[US9334290, 21]", "values": [{"measurement": "pIC50", "value": 6.12}]}
